The results in this text go back to patent US20250129074A1, “CHIMERIC COMPOUND FOR TARGETED DEGRADATION OF ANDROGEN RECEPTOR PROTEIN, PREPARATION METHOD THEREFOR, AND MEDICAL USE THEREOF” (Jiangsu Hengrui Pharmaceuticals Co., Ltd., priority 2021, published 2025).

In experiment [1] the test system is LNCaP cells. Nature of the experiment: Inhibition of LNCaP proliferation (CellTiter-Glo). Conditions: Homo sapiens, 144 h, 0.1 nM R1881, six days; for Emax: read-out: Max (maximum proliferation inhibition rate). The format is cell-based. On the procedure: The plate was incubated in a 37° C., 5% CO2 cell incubator for three days. […] A blank control cell well containing 0.5% DMSO and a cell-free vehicle control well were set up. The plate was incubated in a 37° C., 5% CO2 cell incubator for six days.

In experiment [2] the target is T1, androgen receptor (AR) (Homo sapiens, UniProt P10275, T878A).
T1 construct: host or cells: LNCaP human prostate cancer cells
T1 sequence (P10275 1-920 T878A): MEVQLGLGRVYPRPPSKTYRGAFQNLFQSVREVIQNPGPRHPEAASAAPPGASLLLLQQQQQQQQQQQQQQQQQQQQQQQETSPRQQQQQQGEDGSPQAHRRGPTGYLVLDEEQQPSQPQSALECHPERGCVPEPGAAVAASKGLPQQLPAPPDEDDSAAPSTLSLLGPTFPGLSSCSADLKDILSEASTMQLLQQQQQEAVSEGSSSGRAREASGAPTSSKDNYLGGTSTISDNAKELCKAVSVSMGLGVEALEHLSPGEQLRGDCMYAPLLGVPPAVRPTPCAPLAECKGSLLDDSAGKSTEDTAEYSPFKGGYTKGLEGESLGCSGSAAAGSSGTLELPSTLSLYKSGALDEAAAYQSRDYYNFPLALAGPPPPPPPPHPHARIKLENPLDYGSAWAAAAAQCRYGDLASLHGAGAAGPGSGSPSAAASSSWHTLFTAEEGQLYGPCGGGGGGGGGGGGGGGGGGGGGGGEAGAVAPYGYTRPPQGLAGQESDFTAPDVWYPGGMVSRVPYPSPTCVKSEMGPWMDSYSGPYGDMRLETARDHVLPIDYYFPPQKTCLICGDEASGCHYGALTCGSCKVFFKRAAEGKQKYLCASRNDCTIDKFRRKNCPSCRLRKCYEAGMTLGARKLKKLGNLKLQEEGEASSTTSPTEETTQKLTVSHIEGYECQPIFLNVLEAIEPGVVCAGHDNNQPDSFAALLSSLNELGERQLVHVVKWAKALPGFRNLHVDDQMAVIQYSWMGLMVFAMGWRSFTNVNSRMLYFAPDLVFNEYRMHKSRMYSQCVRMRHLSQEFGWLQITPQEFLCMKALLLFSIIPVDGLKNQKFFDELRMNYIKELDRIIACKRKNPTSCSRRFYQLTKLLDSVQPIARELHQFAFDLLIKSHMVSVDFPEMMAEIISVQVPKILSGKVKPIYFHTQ
Nature of the experiment: Degradation activity on androgen receptor in LNCaP cells (AR ELISA). The format is cell-based. To be noted: 0.1 nM R1881, 24 hours; for DC50: read-out: LNCaP DC50; for Dmax: read-out: Max (maximum AR degradation rate). On the procedure: The plate was incubated in a 37° C., 5% CO2 cell incubator for three days. […] A blank control cell well containing 0.5% DMSO was set up. The plate was incubated in a 37° C., 5% CO2 cell incubator for 24 hours. […] The lysate was well mixed by pipetting up and down and then centrifuged at 4000 rpm at 4° C. for 10 minutes. […] The plate was sealed and incubated in a 37° C. incubator for 1 hour. […] The plate was sealed and then incubated in a 37° C. incubator for 30 minutes.
(In an ELISA, binding on a coated surface is turned into a signal by an enzyme label.)

Take `C[C@H]1CC2(CCN(c3ccc(C(=O)N4CCC(CN5CCC(N6CCN(c7ccc(N8CCC(=O)NC8=O)cc7)CC6)CC5)CC4)cc3)CC2)CN1c1ccc(C#N)c(Cl)c1` [Example 9, (S)-2-Chloro-4-(8-(4-(4-((4-(4-(4-(2,4-dioxotetrahydropyrimidin-1(2H)-yl)phenyl)piperazin-1-yl)piperidin-1-yl)methyl)piperidine-1-carbonyl)phenyl)-3-methyl-2,8-diazaspiro[4.5]decan-2-yl)benzonitrile]: in experiment [1], the IC50 (commonly the concentration that gives 50% inhibition) turned out to be 69 nM and the Emax stood at 59%. Besides, in experiment [2], the DC50 (in general, the midpoint of the concentration-degradation curve) stood at 12.9 nM and the Dmax was found to be 92%.
For the molecule `C[C@H]1CC2(CCN(c3ccc(C(=O)N4CCC5(CC4)CC(N4CCN(c6ccc(N7CCC(=O)NC7=O)cc6)CC4)C5)cn3)CC2)CN1c1ccc(C#N)c(Cl)c1` [Example 33, (S)-2-Chloro-4-(8-(5-(2-(4-(4-(2,4-dioxotetrahydropyrimidin-1(2H)-yl)phenyl)piperazin-1-yl)-7-azaspiro[3.5]nonane-7-carbonyl)pyridin-2-yl)-3-methyl-2,8-diazaspiro[4.5]decan-2-yl]benzonitrile], in experiment [1], half-maximal inhibition (IC50) required 3.5 nM and the Emax came out at 58%. For the same molecule, in experiment [2], the DC50 stood at 2.5 nM and the Dmax is 95%.
The corresponding values for `C[C@H]1CC2(CCN(c3ccc(C(=O)N4CCC5(CC4)CC(N4CCN(c6cccc(N7CCC(=O)NC7=O)c6)CC4)C5)cc3)CC2)CN1c1ccc(C#N)c(Cl)c1` [Example 35, (S)-2-Chloro-4-(8-(4-(2-(4-(3-(2,4-dioxotetrahydropyrimidin-1(2H)-yl)phenyl)piperazin-1-yl)-7-azaspiro[3.5]nonane-7-carbonyl)phenyl)-3-methyl-2,8-diazaspiro[4.5]decan-2-yl)benzonitrile] are 31 nM, 57%, 5.2 nM and 88%.
Taken in the same sequence, the figures for `C[C@H]1CC2(CCN(c3ccc(C(=O)N4CCN(CC(=O)Nc5cccc(NC6CCC(=O)NC6=O)c5)CC4)cc3)CC2)CN1c1ccc(C#N)c(Cl)c1` (stereo partly drawn) [Example 42, 2-(4-(4-((S)-2-(3-Chloro-4-cyanophenyl)-3-methyl-2,8-diazaspiro[4.5]decan-8-yl)benzoyl)piperazin-1-yl)-N-(3-((2,6-dioxopiperidin-3-yl)amino)phenyl)acetamide] were 39 nM, 50%, 4.2 nM and 90%.
The corresponding values for `C[C@H]1CC2(CCN(c3ccc(C(=O)N4CCN(CC5CCN(c6cccc(NC7CCC(=O)NC7=O)c6)CC5)CC4)cc3)CC2)CN1c1ccc(C#N)c(Cl)c1` (stereo partly drawn) [Example 37, 2-Chloro-4-((3S)-8-(4-(4-((1-(3-((2,6-dioxopiperidin-3-yl)amino)phenyl)piperidin-4-yl)methyl)piperazine-1-carbonyl)phenyl)-3-methyl-2,8-diazaspiro[4.5]decan-2-yl)benzonitrile] are 125 nM, 73%, 7.6 nM and 97%.
Turning to `C[C@H]1CC2(CCN(c3ccc(C(=O)N4CCC(CN5CCC(c6ccc(NC7CCC(=O)NC7=O)cc6)CC5)CC4)cc3)CC2)CN1c1ccc(C#N)c(Cl)c1` (stereo partly drawn) [Example 26, 2-Chloro-4-((3S)-8-(4-(4-((4-(4-((2,6-dioxopiperidin-3-yl)amino)phenyl)piperidin-1-yl)methyl)piperidine-1-carbonyl)phenyl)-3-methyl-2,8-diazaspiro[4.5]decan-2-yl)benzonitrile], in experiment [1], the IC50 amounted to 7.8 nM and the Emax amounted to 63%. In experiment [2], the DC50 is 2.5 nM and the Dmax turned out to be 94%.
The corresponding values for `C[C@H]1CC2(CCN(c3ccc(C(=O)N4CCC5(CC4)CC(N4CCN(c6ccc(N7CCC(=O)NC7=O)cc6)CC4)C5)c(F)c3)CC2)CN1c1ccc(C#N)c(Cl)c1` [Example 31, (S)-2-Chloro-4-(8-(4-(2-(4-(4-(2,4-dioxotetrahydropyrimidin-1(2H)-yl)phenyl)piperazin-1-yl)-7-azaspiro[3.5]nonane-7-carbonyl)-3-fluorophenyl)-3-methyl-2,8-diazaspiro[4.5]decan-2-yl)benzonitrile] are 12 nM, 57%, 8.7 nM and 94%.
Taken in the same sequence, the figures for `C[C@H]1CC2(CCN(c3ccc(C(=O)N4CCC(CN5CCN(c6ccc(C(=O)NC7CCC(=O)NC7=O)nc6)CC5)CC4)cc3)CC2)CN1c1ccc(C#N)c(Cl)c1` (stereo partly drawn) [Example 4, 5-(4-((1-(4-((S)-2-(3-Chloro-4-cyanophenyl)-3-methyl-2,8-diazaspiro[4.5]decan-8-yl)benzoyl)piperidin-4-yl)methyl)piperazin-1-yl)-N-(2,6-dioxopiperidin-3-yl)picolinamide] were 135 nM, 58%, 20.2 nM and 92%.
Taken in the same sequence, the figures for `C[C@H]1CC2(CCN(c3ccc(C(=O)N4CCC(CN5CCN(c6ccc(NC7CCC(=O)NC7=O)cc6)CC5)CC4)cc3)CC2)CN1c1ccc(C#N)c(Cl)c1` (stereo partly drawn) [Example 25, 2-Chloro-4-((3S)-8-(4-(4-((4-(4-((2,6-dioxopiperidin-3-yl)amino)phenyl)piperazin-1-yl)methyl)piperidine-1-carbonyl)phenyl)-3-methyl-2,8-diazaspiro[4.5]decan-2-yl)benzonitrile] were 24 nM, 60%, 1.8 nM and 96%.
As to `C[C@H]1CC2(CCN(c3ccc(C(=O)N4CCC(CN5CCN(c6cccc(NC7CCC(=O)NC7=O)c6)CC5)CC4)nn3)CC2)CN1c1ccc(C#N)c(Cl)c1` (stereo partly drawn) [Example 13, 2-Chloro-4-((3S)-8-(6-(4-((4-(3-((2,6-dioxopiperidin-3-yl)amino)phenyl)piperazin-1-yl)methyl)piperidine-1-carbonyl)pyridazin-3-yl)-3-methyl-2,8-diazaspiro[4.5]decan-2-yl)benzonitrile], in experiment [1], the IC50 turned out to be 106 nM and the Emax stood at 56%. In addition, in experiment [2], the DC50 amounted to 0.5 nM and the Dmax was 96%.
As for `C[C@H]1CC2(CCN(c3ccc(C(=O)N4CCC(CN5CCN(c6ccccc6NC6CCC(=O)NC6=O)CC5)CC4)cc3)CC2)CN1c1ccc(C#N)c(Cl)c1` (stereo partly drawn) [Example 39, 2-Chloro-4-((3S)-8-(4-(4-((4-(2-((2,6-dioxopiperidin-3-yl)amino)phenyl)piperazin-1-yl)methyl)piperidine-1-carbonyl)phenyl)-3-methyl-2,8-diazaspiro[4.5]decan-2-yl)benzonitrile], in experiment [2], the 50% degradation concentration (DC50) is 13.9 nM and the Dmax worked out at 86%.
The corresponding values for `C[C@H]1CC2(CCN(c3ccc(C(=O)N4CCC(CN5CCN(c6ccc(C(=O)NC7CCC(=O)NC7=O)cc6)CC5)CC4)cc3)CC2)CN1c1ccc(C#N)c(Cl)c1` (stereo partly drawn) [Example 43, 4-(4-((1-(4-((S)-2-(3-Chloro-4-cyanophenyl)-3-methyl-2,8-diazaspiro[4.5]decan-8-yl)benzoyl)piperidin-4-yl)methyl)piperazin-1-yl)-N-(2,6-dioxopiperidin-3-yl)benzamide] are 9.3 nM and 92%.
Taken in the same sequence, the figures for `C[C@H]1CC2(CCN(c3ccc(C(=O)N4CC(CN5CCN(c6cccc(NC7CCC(=O)NC7=O)c6)CC5)C4)nn3)CC2)CN1c1ccc(C#N)c(Cl)c1` (stereo partly drawn) [Example 22, 2-Chloro-4-((3S)-8-(6-(3-((4-(3-((2,6-dioxopiperidin-3-yl)amino)phenyl)piperazin-1-yl)methyl)azetidine-1-carbonyl)pyridazin-3-yl)-3-methyl-2,8-diazaspiro[4.5]decan-2-yl)benzonitrile] were 0.4 nM and 97%.
